The structures appear in SMILES notation. Residues, ends and D or L forms follow the SMILES beside them. *: point of attachment. OiPr = CC(C)O*

Broadly, the melting point is the temperature of the solid-liquid transition. Compound `C=C(C)C(=O)Oc1ccc2c(c1)CCc1cc(OC(=O)C(=C)C)ccc1-2` yielded a melting point of 116 °C.
Under `O=C(Nc1nccs1)c1c(C(F)(F)F)nc(-c2cccs2)c(-c2ccccc2)c1O` stands 136 °C.
Under `CCCCCCCCCCCCCCOc1ccccc1CO` stands 33 to 34 °C; under `Cn1nnc(-c2ccc3c(c2)c(C2=CCN(CCN4CCNC4=O)CC2)cn3-c2ccc(F)cc2)n1`, 201 to 203 °C.
Under `CC(=O)Nc1nc(CCc2ccc(CC(=O)O)s2)cs1` stands 172 to 174 °C; under `Cc1cccc(C)c1NCCNCC(O)COc1cccc2[nH]c3ccccc3c12` (configuration not stated), 162 to 163 °C.
`Clc1cnc(SCI)nc1` had a melting point of 67 °C.
Under `ClCc1c2ccccc2c(Cc2ccccc2)c2ccccc12` stands 146 to 147 °C; under `N#Cc1cnc2cc(-c3ccc(CCN4CCOCC4)s3)ccc2c1Nc1ccc(Cl)cc1Cl`, 168 to 169 °C.
As to `Cc1ccc(C(=O)NC(NC(=NC#N)Nc2ccccc2)C(Cl)(Cl)Cl)cc1` (configuration not stated), the melting point was in the range of 197 to 199 °C.
`CCCn1c(Cl)cc2cnc(C)n2c1=O`: the melting point lay in the range of 125 to 126 °C.
With `Cc1nc(-n2cnn(Cc3ccc(F)cc3)c2=O)sc1C(=O)NCc1cnn(C)c1` the figure was 205 to 206 °C; with `CSc1ccc(-c2nn(Cc3cccnc3)c(=S)cc2-c2ccc(Cl)cc2)cc1`, 130 to 131 °C.
Regarding `NS(=O)(=O)c1c(-c2ccccc2)sc2ccccc12`, the melting point was 185 to 186 °C.
Take `NNC(=S)NCc1ccc([N+](=O)[O-])cc1`: the melting point was in the range of 196 to 198 °C.
Under `N#Cc1ccc(C(=C2C3CC4CC(C3)CC2C4)c2ncc[nH]2)cc1` stands 155 °C.
With `CC(C)Sc1nc(-c2ccc(F)cc2)c(-c2ccncc2)[nH]1` the figure was 263 to 264 °C; with `CCOC(=O)C(C)(C)Sc1ccc(O)cc1`, 68 to 69 °C; with `Cn1cc(C2=C(c3cn(C)c4ccc(N)cc34)C(=O)NC2=O)c2ccccc21`, 254 to 256 °C.
For the compound `CC(C)OCc1cc2ccccc2oc1=Nc1ccccc1`, the melting point was 107 to 108 °C.
Compound `CCOC(=O)CC(c1ccc(OC)cc1)N1C(=O)c2ccccc2C1=O` (configuration not stated) came in with a melting point of 32 °C.
For the compound `COC(=O)c1ccc(Cc2cc3cc(Cl)ccc3n2S(=O)(=O)N2CCCCC2)cc1`, the melting point was 133 °C.
Consider `CCCCCCCCNC(=O)N(CCCCCSc1nc(-c2ccccc2)c(-c2ccccc2)[nH]1)c1ccccc1`, for which the melting point was 74 to 76 °C.
With `CC(=O)c1cc2nc(S(=O)Cc3nccc4c3OCO4)[nH]c2cc1C` (configuration not stated) the figure was 178 to 180 °C.
As for `COc1ccc(-c2coc3cc(OCc4ccccc4)ccc3c2=O)cc1`, the melting point fell in the range of 181 to 183 °C.
With `CC(C)(C)OC(=O)N1CCCN(c2nc3ccccc3[nH]2)CC1` the figure was 225 to 226 °C; with `CC(Oc1cc(C(F)(F)F)cc(C(F)(F)F)c1)C(=O)O` (configuration not stated), 51 to 53 °C.
Under `C[C@@H]1CCN(C(=O)C(C)(C)C)[C@@H](C(=O)NOCc2ccccc2)C1` stands 107 to 108 °C.
In turn, `COC(=O)C(=O)c1ccc(OCCOc2ccc(C(F)(F)F)cc2)cc1` showed a melting point of 96 to 98 °C.
As to `Nc1cccc(-c2ccc(CCCN3CCN(CCc4ccccc4)CC3)cc2)n1`, the melting point lay within 125 to 140 °C.
In turn, `Cc1ccc2c(c1)c(=O)n1nc(C(=O)O)cc1n2C` showed a melting point of 269 °C.
`CCCN(CCC)CC1CCN(CCNC(=O)N2c3ccccc3C(=O)Nc3cccnc32)C1` (configuration not stated): the melting point was in the range of 134 to 138 °C.
Under `CC(C)n1nc(-c2nc(-n3cccc3)c(N)nc2-c2ccccc2)ccc1=O` stands 132 to 136 °C.
With `C=Cc1c(F)c(N2CCN(CC)CC2)c(F)c2c1c(=O)c(C(=O)O)cn2C1CC1` the figure was 198 to 200 °C; with `O=C(NC1N=C(c2ccccc2F)c2ccccc2-n2cnnc21)c1cc2ccccc2[nH]1` (configuration not stated), 291 °C; with `COC(=O)Cc1cccc(NCCCBr)c1`, 129 to 130 °C.
Under `Cn1c(N2CCOC(c3noc(-c4ccccc4)n3)C2)nc(-c2ccncn2)cc1=O` (configuration not stated) stands 208 °C; under `CCCCCCCCCCCCCCCOC(=O)c1cccnc1`, 35 °C.
The compound `O=C1c2ccccc2CN1c1ccccc1CCN1CCN(c2nsc3ccccc23)CC1` registered a melting point of 208 °C.
Under `CC(C)(C)c1cc(OCc2ccccc2C#N)cc(C(C)(C)C)c1O` stands 117 to 119 °C; under `COc1ccc(COc2cccc3c2CN(C2CCC(=O)NC2=O)C3=O)cc1OC` (configuration not stated), 205 to 207 °C; under `Nc1cc(=O)n(Cc2cccc(I)c2)[nH]1`, 186 °C.
`O=c1c2ccccc2[nH]n1-c1ccccc1F` gave a melting point of 156 to 159 °C.
`CC(=O)NCCOc1cc(-c2ccccc2)on1` gave a melting point of 144 to 145 °C.
Regarding `COc1ccc(C2=NN(CCc3ccccc3)C(=O)[C@H]3CCCC[C@@H]23)cc1OC` (relative stereo), the melting point fell in the range of 99 to 100 °C.
The compound `N=C(CC1=CCC=CC1)N1C[C@@H]2C(=O)CCC(c3ccccc3)(c3ccccc3)[C@@H]2C1` (racemic) came in with a melting point of 190 °C.
With `S=C(Nc1ccccc1)N(Cc1ccc(Cl)cc1)C1CCCC1` the figure was 129 to 132 °C; with `CCCOc1nc(C(F)(F)C(F)(F)F)cc(=O)n1-c1cc(O)c(Cl)cc1F`, 109 to 111 °C; with `CCOP(=O)(O)COCCn1cnc2c(=O)[nH]c(N)nc21`, 192 to 194 °C.
With `O=CN(O)C(CC1CCS(=O)(=O)CC1)CS(=O)(=O)c1ccc(Oc2ccc(OC(F)(F)F)cc2)cc1` (configuration not stated) the figure was 143 to 144 °C; with `CCCCCC1(c2ccccc2)CC=CC(=O)O1` (configuration not stated), 123 to 124 °C.
With `Cn1nnc(-c2cccc([N+](=O)[O-])c2)n1` the figure was 105 °C.
As to `C#Cc1ccnc(-c2ccc(Br)cc2[N+](=O)[O-])c1`, the melting point lay in the range of 166 to 171 °C.
With `Cn1c(C(F)(F)F)cc(=O)n(-c2cc(OC3CCCC3)c(Cl)cc2F)c1=O` the figure was 118 to 120 °C; with `COc1cc2c(cc1C(F)(F)F)N(C(=O)Nc1cccs1)CC2`, 240 to 244 °C; with `O=C(O)CC(NC(=O)c1ccccc1)c1ccccc1F` (configuration not stated), 202 to 205 °C.
With `O=[N+]([O-])c1cn(-c2cccnc2)nc1Cl` the figure was 139 to 142 °C.
With `CCCc1c(C(=O)C(C)C)c2ccc(C(=O)O)cc2n1Cc1ccccc1OC` the figure was 190 to 191 °C.
Consider `COc1cc(C(=O)n2c3c(c4ccccc42)CC(C(=O)O)(C(=O)O)CC3)cc(OC)c1OC`, for which the melting point worked out at 208 °C.
With `Cc1cc(C#N)cc(Oc2nc(Cl)nc(Cl)c2C(C)C)c1` the figure was 143 to 144 °C; with `Cc1c(C)c(Cl)c(C(=O)c2ccccc2)c(C)c1Cl`, 105 to 107 °C; with `NS(=O)(=O)c1ccccc1C(Cl)Cl`, 131 to 132 °C.
Under `CC(C)OC(=O)C(CO)NC(=O)C(CC(=O)O)NC(=O)C1CCCN1` (stereo not drawn) (H-Pro-Asp-Ser-OiPr; configuration not given here) stands 230 to 233 °C.
With `CCCc1cn(C)c2c(=O)[nH]c(-c3cc(S(=O)(=O)N4CCN(CCCOC(C)=O)CC4)ccc3OCC)nc12` the figure was 157 to 158 °C; with `O=C(O)Cc1ccc2c(c1)-c1ccccc1C2`, 166 to 168 °C.
Compound `O=C(NCc1ccc2ccn(C3CCN(CCc4ccc(F)cc4)CC3)c2c1)C1CC1` had a melting point of 116 to 117 °C.
Under `COCCOc1ccc2sc(C(=O)Nc3ccccc3N)cc2c1` stands 162 to 165 °C; under `CCOC(=O)CCCCCn1c(=O)[nH]c2ccccc2c1=O`, 103 to 104 °C.
On to `O=CN(O)C(CCc1ccccc1)CS(=O)(=O)N1CCN(c2cc(Cl)ncn2)CC1` (configuration not stated), for which the melting point lay within 155 to 157 °C.
Under `Nc1cc(Cl)c(Br)cc1C(=O)O` stands 228 to 230 °C.
Regarding `CC(=O)O[C@H]1C=C(Br)[C@H](O)[C@@H](Br)[C@@H]1O`, the melting point is 150 to 152 °C.
As for `O=C(NC(=O)c1c(F)cccc1F)Nc1cc(C(F)(F)F)c(Cl)cc1Br`, the melting point worked out at 196 °C.
`Cn1c(=O)[nH]c2ccc(-c3cccc([N+](=O)[O-])c3)cc21` had a melting point of 264 to 265 °C.
With `CN(C)C(=S)C1CC(C)(C)Oc2ccc([N+](=O)[O-])cc21` (configuration not stated) the figure was 158 to 160 °C.
With `O=C(c1ccccc1)c1ccc(Nc2nc(Nc3ccc(C(=O)c4ccccc4)cc3)nc(-c3cccn3Cc3ccccc3)n2)cc1` the figure was 115 to 118 °C; with `O=C1c2ccccc2C(O)N1CCBr` (racemic), 123 to 124 °C; with `OC1CSC(Oc2cncc(-c3c(F)cc(F)cc3F)c2)C(O)C1O` (configuration not stated), 228 °C.
`COc1ccc(Oc2cc3nc(-c4ccc(Cl)cc4Cl)oc3cc2[N+](=O)[O-])cc1` registered a melting point of 144 to 146 °C.
Under `CCOc1c(-c2ccc3cc(NS(C)(=O)=O)ccc3c2)cc(-n2ccc(=O)[nH]c2=O)cc1C(C)(C)C` stands 196 to 202 °C; under `Cc1ccc(S(=O)(=O)N(CCCl)N(S(C)(=O)=O)S(C)(=O)=O)cc1`, 99 to 101 °C.
Under `CCOC(=O)OC1=C(c2c(C)cc(C)cc2C)C(=O)N(N(C)C)C12CCN(N(C)C)CC2` stands 105 °C; under `CCOCC(=O)Nc1ccc(OC(=O)NC)cc1C`, 118 to 121 °C; under `Cc1c(C)c2c(c(C)c1OC(=O)CCC(=O)O)C(c1ccc(C(C)C)cc1)C(C)(C)O2` (configuration not stated), 141 to 142 °C.
Under `Nc1nc(N)nc(CCC(Cl)(Cl)Cl)n1` stands 187 to 188 °C; under `Nc1cc(=O)n(C2CCCC2)c2nc(N[C@H]3CC[C@H](O)CC3)ncc12`, 246 to 248 °C; under `NC(=O)Nc1cccc2c1nc(/C=C/c1ccccc1)n2-c1ccccn1`, above 230 °C.
Take `CN(c1ccc(Cl)cc1)S(=O)(=O)c1cccc(C(=O)Nc2ccc(Cl)cc2C#N)c1`: the melting point was 157 to 158 °C.
